Laboratory results: the NIST ThermoML archive (doi:10.1016/j.fluid.2018.10.006)

Conditions: Fluid (supercritical or subcritical phases), Coaxial cylinder method

CCCCCC [hexane]
Conditions	thermal conductivity [W/m/K]
513.09 K, 8500 kPa	0.07722
513.09 K, 8790 kPa	0.07758
513.09 K, 8830 kPa	0.07762
513.09 K, 8882 kPa	0.07769
513.09 K, 9275 kPa	0.07816
513.09 K, 9297 kPa	0.07816
513.09 K, 9300 kPa	0.07816
513.09 K, 9344 kPa	0.0782
513.09 K, 9367 kPa	0.07824
513.09 K, 9700 kPa	0.07864
513.09 K, 9900 kPa	0.07883
513.09 K, 10000 kPa	0.07894
515.56 K, 676 kPa	0.03834
515.56 K, 700 kPa	0.03843
515.56 K, 900 kPa	0.03853
515.56 K, 1220 kPa	0.039
515.56 K, 1221 kPa	0.039
515.56 K, 1672 kPa	0.04008
515.56 K, 1786 kPa	0.04038
515.56 K, 1822 kPa	0.04059
515.56 K, 2209 kPa	0.0423
515.56 K, 2287 kPa	0.04275
515.56 K, 2404 kPa	0.04344
515.56 K, 2503 kPa	0.04392
515.56 K, 2607 kPa	0.04465
515.56 K, 2688 kPa	0.04553
515.56 K, 2751 kPa	0.04606
515.56 K, 2811 kPa	0.04699
515.56 K, 2856 kPa	0.04713
515.56 K, 2919 kPa	0.04712
515.56 K, 2953 kPa	0.04782
515.56 K, 2989 kPa	0.04928
515.56 K, 3019 kPa	0.05004
515.56 K, 3062 kPa	0.05082
515.56 K, 3072 kPa	0.05082
515.56 K, 3083 kPa	0.05163
515.56 K, 3103 kPa	0.05247
515.56 K, 3114 kPa	0.05247
515.56 K, 3122 kPa	0.05247
515.56 K, 3140 kPa	0.05247
515.56 K, 3153 kPa	0.05333
515.56 K, 3164 kPa	0.05333
515.56 K, 3174 kPa	0.05422
515.56 K, 3180 kPa	0.05422
515.56 K, 3193 kPa	0.05609
515.56 K, 3201 kPa	0.05609
515.56 K, 3209 kPa	0.05609
515.56 K, 3220 kPa	0.05609
515.56 K, 3230 kPa	0.05808
515.56 K, 3235 kPa	0.05808
515.56 K, 3243 kPa	0.05808
515.56 K, 3249 kPa	0.05808
515.56 K, 3257 kPa	0.06022
515.56 K, 3265 kPa	0.06022
515.56 K, 3270 kPa	0.06022
515.56 K, 3275 kPa	0.06022
515.56 K, 3283 kPa	0.06205
515.56 K, 3293 kPa	0.06205
515.56 K, 3301 kPa	0.06374
515.56 K, 3309 kPa	0.06474
515.56 K, 3316 kPa	0.065
515.56 K, 3322 kPa	0.06539
515.56 K, 3329 kPa	0.06578
515.56 K, 3334 kPa	0.06604
515.56 K, 3339 kPa	0.06631
515.56 K, 3342 kPa	0.06658
515.56 K, 3347 kPa	0.06685
515.56 K, 3350 kPa	0.06698
515.56 K, 3352 kPa	0.06712
515.56 K, 3357 kPa	0.06737
515.56 K, 3360 kPa	0.06751
515.56 K, 3362 kPa	0.06759
515.56 K, 3368 kPa	0.06795
515.56 K, 3373 kPa	0.06823
515.56 K, 3386 kPa	0.06866
515.56 K, 3394 kPa	0.06909
515.56 K, 3426 kPa	0.06997
515.56 K, 3453 kPa	0.06911
515.56 K, 3462 kPa	0.06911
515.56 K, 3482 kPa	0.06911
515.56 K, 3490 kPa	0.06911
515.56 K, 3499 kPa	0.06911
515.56 K, 3520 kPa	0.06911
515.56 K, 3541 kPa	0.06911
515.56 K, 3550 kPa	0.06911
515.56 K, 3566 kPa	0.06911
515.56 K, 3579 kPa	0.06769
515.56 K, 3614 kPa	0.06769
515.56 K, 3638 kPa	0.06769
515.56 K, 3682 kPa	0.06769
515.56 K, 3700 kPa	0.06769
515.56 K, 3750 kPa	0.06938
515.56 K, 3800 kPa	0.06938
515.56 K, 3841 kPa	0.06944
515.56 K, 3900 kPa	0.0695
515.56 K, 3928 kPa	0.06953
515.56 K, 3941 kPa	0.06959
515.56 K, 3995 kPa	0.06965
515.56 K, 4000 kPa	0.06968
515.56 K, 4025 kPa	0.06968
515.56 K, 4104 kPa	0.06983
515.56 K, 4200 kPa	0.07004
515.56 K, 4307 kPa	0.07016
515.56 K, 4388 kPa	0.07034
515.56 K, 4400 kPa	0.0704
515.56 K, 4488 kPa	0.07058
515.56 K, 4537 kPa	0.07067
515.56 K, 4593 kPa	0.0708
515.56 K, 4620 kPa	0.07089
515.56 K, 4700 kPa	0.07098
515.56 K, 4790 kPa	0.07114
515.56 K, 4800 kPa	0.07117
515.56 K, 4830 kPa	0.07123
515.56 K, 4900 kPa	0.07129
515.56 K, 5000 kPa	0.07151
515.56 K, 5100 kPa	0.07167
515.56 K, 5130 kPa	0.0717
515.56 K, 5200 kPa	0.07182
515.56 K, 5300 kPa	0.07198
515.56 K, 5400 kPa	0.07217
515.56 K, 5580 kPa	0.07243
515.56 K, 5600 kPa	0.07246
515.56 K, 5690 kPa	0.07265
515.56 K, 5740 kPa	0.07275
515.56 K, 5800 kPa	0.07285
515.56 K, 5900 kPa	0.07301
515.56 K, 6050 kPa	0.07327
515.56 K, 6060 kPa	0.07327
515.56 K, 6080 kPa	0.0733
515.56 K, 6300 kPa	0.07366
515.56 K, 6380 kPa	0.0738
515.56 K, 6460 kPa	0.07393
515.56 K, 6610 kPa	0.07417
515.56 K, 6920 kPa	0.07464
515.56 K, 6950 kPa	0.07468
515.56 K, 7020 kPa	0.07478
515.56 K, 7100 kPa	0.07488
515.56 K, 7470 kPa	0.0754
515.56 K, 7560 kPa	0.07554
515.56 K, 7570 kPa	0.07557
515.56 K, 7600 kPa	0.0756
515.56 K, 7840 kPa	0.07592
515.56 K, 7870 kPa	0.07595
515.56 K, 7940 kPa	0.07602
515.56 K, 8050 kPa	0.07617
515.56 K, 8100 kPa	0.0762
515.56 K, 8140 kPa	0.07624
515.56 K, 8230 kPa	0.07638
515.56 K, 8370 kPa	0.07656
515.56 K, 8470 kPa	0.07663
515.56 K, 8540 kPa	0.0767
515.56 K, 8730 kPa	0.07695
515.56 K, 8870 kPa	0.07714
515.56 K, 9080 kPa	0.07739
515.56 K, 9100 kPa	0.07739
525.42 K, 1000 kPa	0.0403
525.42 K, 1500 kPa	0.0416
525.42 K, 1975 kPa	0.04209
525.42 K, 1984 kPa	0.04209
525.42 K, 2100 kPa	0.04213
525.42 K, 2200 kPa	0.04213
525.42 K, 2300 kPa	0.04213
525.42 K, 2404 kPa	0.04213
525.42 K, 2423 kPa	0.04213
525.42 K, 2425 kPa	0.04213
